According to PMC9181902 (Journal of the American Chemical Society, 2022):
“Also recorded” adds a separate entry of the source.

Experiments:
hOAT [1] = biological target: T1, hOAT (Homo sapiens, UniProt P04181); conditions: cited from earlier work
T1 sequence (P04181 26-439): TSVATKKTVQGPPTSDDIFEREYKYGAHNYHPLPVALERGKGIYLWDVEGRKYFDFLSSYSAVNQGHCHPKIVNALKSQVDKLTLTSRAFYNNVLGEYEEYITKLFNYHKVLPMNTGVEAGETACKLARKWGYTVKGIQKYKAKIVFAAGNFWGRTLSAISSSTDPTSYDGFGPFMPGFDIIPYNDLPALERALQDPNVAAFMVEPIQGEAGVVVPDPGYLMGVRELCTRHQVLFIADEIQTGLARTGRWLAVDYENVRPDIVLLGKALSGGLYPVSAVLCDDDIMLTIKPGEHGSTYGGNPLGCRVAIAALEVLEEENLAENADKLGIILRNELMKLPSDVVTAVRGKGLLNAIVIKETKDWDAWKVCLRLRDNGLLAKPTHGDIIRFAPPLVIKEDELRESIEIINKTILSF

[2] = cited from earlier work
Asp-AT = assay: Inhibition of Asp-AT; type: biochemical, human; conditions: even at high concentrations
hOAT [3] = biological target: T1, hOAT; assay: Stopped-flow transient state measurements of hOAT; type: biochemical
GABA-AT [4] = assay: Inhibition of GABA-AT; type: biochemical, human; conditions: even at high concentrations
hOAT [5] = biological target: T1, hOAT; assay: Partition ratio; type: biochemical
hOAT [6] = biological target: T1, hOAT; assay: Dialysis of inactivated hOAT, return of enzyme activity; type: biochemical
Ala-AT = assay: Inhibition of Ala-AT; type: biochemical, human; conditions: even at high concentrations
GABA-AT [7] = conditions: cited from earlier work

N[C@H]1C[C@@H](C(=O)O)CC1=C(C(F)(F)F)C(F)(F)F [6c, (1S,3S)-3-amino-4-(hexafluoropropan-2-ylidenyl)cyclopentane-1-carboxylic Acid]
Ki (hOAT [1]): 65 ± 10 µM | in vivo antitumor efficacy [2]: potent in vivo antitumor efficacy

N[C@H]1C=C(C(=O)O)C[C@H]1C(F)F [10b, (3S,4R)-3-Amino-4-(difluoromethyl)cyclopent-1-ene-1-carboxylic Acid]
inhibitory activity against Asp-AT (Asp-AT): weak reversible inhibitory activity | first successive rate constant from fit of CCD data sets (k2’) (hOAT [3]; 500 μM of 10b): 0.22 s⁻¹ | second successive rate constant from fit of CCD data sets (k3’) (hOAT [3]; 500 μM of 10b): 0.21 s⁻¹ | third successive rate constant from fit of CCD data sets (k4) (hOAT [3]; 500 μM of 10b): 0.03 s⁻¹ | rate constant for formation of P1 from M2 (k4) (hOAT [3]; 410 nm, second phase, average): ~ 0.02 s^−1 | inhibitory activity against GABA-AT (GABA-AT [4]): weak reversible inhibitor; also recorded: weak reversible inhibitory activity | fraction undergoing ketimine hydrolysis to product 37 and PMP (hOAT [5]): ~ 70% | fraction of the reaction forming tight-binding adduct 34 (hOAT [5]; according to the partition ratio (1/3.38)): ~ 30% | enzyme activity recovered after dialysis (hOAT [6]; 91 h of dialysis, varying equivalents): no enzyme activity was recovered | inhibitory activity against Ala-AT (Ala-AT): weak reversible inhibitory activity

N[C@H]1C[C@@H](C(=O)O)CC1=C(F)F [compound 1, (1S,3S)-3-amino-4-(difluoromethylene)cyclopentane-1-carboxylic acid]
enzyme activity recovered after dialysis (hOAT [6]; 48 h of dialysis): no enzyme activity was recovered

N[C@H]1C=C(C(=O)O)CC1=C(F)F [compound 7, (S)-3-amino-4-(difluoromethylenyl)cyclopent-1-ene-1-carboxylic acid]
type of inhibition of GABA-AT (GABA-AT [7]): partially irreversible inhibitors | enzyme activity recovered after dialysis (hOAT [6]; 48 h of dialysis): no enzyme activity was recovered
